According to publication PMC6213796, “Purification and Identification of Angiotensin I-Converting Enzyme Inhibitory Peptides and the Antihypertensive Effect of Chlorella sorokiniana Protein Hydrolysates” (Nutrients, 2018):
Read-outs that look alike come from different tables or passages of the source. Residues, ends and D or L forms follow the SMILES beside them.

Tests used:
Rabbit lung ACE = biological target: T1, Rabbit lung ACE (Oryctolagus cuniculus, UniProt P12822); test: In vitro assay for ACE-inhibitory activity (HHL substrate, RP-HPLC of hippuric acid); format: biochemical; conditions: for ACE Inhibitory (%): RP-HPLC peaks of fraction F of PN-1G, at peptide content 0.01-0.03 mg/mL
T1 construct: ACE of rabbit lung, and other chemicals of analytical grade were obtained from Sigma Chemical Co; purchased Sigma Chemical Co. (St. Louis, MO, USA); host or cells: rabbit lung tissue
T1 sequence (P12822 34-1310): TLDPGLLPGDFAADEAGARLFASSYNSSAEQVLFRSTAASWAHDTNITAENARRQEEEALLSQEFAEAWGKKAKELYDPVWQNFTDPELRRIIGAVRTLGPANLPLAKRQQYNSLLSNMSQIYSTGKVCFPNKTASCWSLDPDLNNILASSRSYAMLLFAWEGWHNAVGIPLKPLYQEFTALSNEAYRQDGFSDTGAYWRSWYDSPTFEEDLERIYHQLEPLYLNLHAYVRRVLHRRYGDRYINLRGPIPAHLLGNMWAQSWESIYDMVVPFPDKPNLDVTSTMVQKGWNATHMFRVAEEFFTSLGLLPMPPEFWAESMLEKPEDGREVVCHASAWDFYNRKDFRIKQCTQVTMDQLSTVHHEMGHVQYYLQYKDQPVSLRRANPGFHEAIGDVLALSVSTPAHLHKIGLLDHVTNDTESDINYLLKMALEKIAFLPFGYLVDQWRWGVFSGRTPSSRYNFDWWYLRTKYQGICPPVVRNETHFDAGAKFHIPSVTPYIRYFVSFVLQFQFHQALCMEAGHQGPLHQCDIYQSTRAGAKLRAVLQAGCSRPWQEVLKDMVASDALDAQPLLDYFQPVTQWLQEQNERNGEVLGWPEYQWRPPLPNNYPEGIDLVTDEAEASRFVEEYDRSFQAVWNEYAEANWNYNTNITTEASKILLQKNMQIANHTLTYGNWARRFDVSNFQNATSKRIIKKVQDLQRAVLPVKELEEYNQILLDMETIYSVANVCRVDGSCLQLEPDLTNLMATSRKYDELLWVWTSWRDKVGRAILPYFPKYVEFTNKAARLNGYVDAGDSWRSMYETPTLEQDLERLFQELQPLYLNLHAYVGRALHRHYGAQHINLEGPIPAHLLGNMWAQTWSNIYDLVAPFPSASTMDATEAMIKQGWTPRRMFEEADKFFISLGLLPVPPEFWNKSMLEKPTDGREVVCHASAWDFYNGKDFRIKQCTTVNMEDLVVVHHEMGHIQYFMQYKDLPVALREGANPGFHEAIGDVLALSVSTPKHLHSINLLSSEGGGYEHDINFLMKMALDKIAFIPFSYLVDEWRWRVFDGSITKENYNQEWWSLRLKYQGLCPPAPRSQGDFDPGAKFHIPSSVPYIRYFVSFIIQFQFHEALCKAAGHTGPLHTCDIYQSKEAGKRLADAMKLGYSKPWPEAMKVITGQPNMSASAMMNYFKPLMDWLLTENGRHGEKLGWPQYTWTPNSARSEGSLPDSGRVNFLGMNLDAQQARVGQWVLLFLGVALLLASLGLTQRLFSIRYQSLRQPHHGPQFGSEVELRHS
Method: In brief, 15 mM HHL was dissolved in 100 mM Na-borate buffer (pH 8.3) supplemented with 300 mM NaCl. […] A mixture containing 75 μL of ACE solution and 75 μL of the sample with a 5000-Da MWCO membrane (Millipore, Burlington, MA, USA) was incubated at 37 °C for 10 min, to which was added 75 μL of HHL solution, and the mixture was incubated for a further 30 min. […] Finally, inhibition activity was calculated using the following formula.Inhibition activity (%) = [(Ec - Es)/(Ec - Eb)] × 100 where Ec is the absorbance with addition of the buffer instead of the test sample (control), Es is the absorbance when the sample was added to the reaction mixture (sample), and Eb is the absorbance when the stop solution was added before the reaction occurred (blank). […] All data presented in this paper are the average of three repeats or mean ± standard deviation (SD).

ACE = conditions: cited from earlier work
SHRs = conditions: tube feeding, after 2 to 4 h, compared with captopril at the same dose; cited from earlier work
[1] = biological target: angiotensin I-converting enzyme (ACE) of rabbit lung (rabbit) (UniProt P12822)
[2] = biological target: angiotensin I-converting enzyme (ACE) of rabbit lung (rabbit) (UniProt P12822); remark: listed apart in the source
[3] = peaks F7 to F10, converted from μM, read-out: IC50 (equivalent in mg/mL) (converted)
[4] = peptides of peaks F7 to F10 from PN-1G, read-out: IC50
[5] = ACE-inhibitory peptides from pepsin hydrolysate of Porphyra yezoensis, read-out: IC50

For `CC(C)[C@H](NC(=O)[C@@H](N)Cc1c[nH]c2ccccc12)C(=O)O` [Peak F7, Trp–Val] (H-Trp-Val-OH), the “ACE Inhibitory (%)” value (Rabbit lung ACE) was 54.3%, the IC50 (Rabbit lung ACE; [3]) was 308 µM and the IC50 (Rabbit lung ACE; [4]) was 307.61 ± 0.01 µM.
With `CC(C)[C@H](N)C(=O)N[C@@H](Cc1c[nH]c2ccccc12)C(=O)O` [Peak F8, Val–Trp] (H-Val-Trp-OH) the IC50 (Rabbit lung ACE; IC50 (equivalent in mg/mL), peaks F7 to F10, converted from μM) was 0.593 µM, the IC50 (Rabbit lung ACE; IC50, peptides of peaks F7 to F10 from PN-1G) was 0.58 ± 0.02 µM and the “ACE Inhibitory (%)” value (Rabbit lung ACE) was 86.1%.
In the case of `CC[C@H](C)[C@H](N)C(=O)N[C@@H](Cc1c[nH]c2ccccc12)C(=O)O` [Peak F9, Ile–Trp], the “ACE Inhibitory (%)” value (Rabbit lung ACE) is reported as 95.1%, the IC50 (Rabbit lung ACE; [3]) is reported as 0.504 µM and the IC50 (Rabbit lung ACE; [4]) is reported as 0.5 ± 0.01 µM.
For “Ala-Lys-Tyr-Ser-Tyr (AKYSY; printed: Ala-Lys-Tyr-Ser-Tyr)”, the IC50 (ACE; [5]) is given as 1.52 µM.
In the case of Ile-Gln-Pro, the IC50 (ACE; peptide from Alcalase hydrolysate, read-out: IC50) is given as 5.77 µM and the blood pressure-lowering effect (SHRs) is given as “same blood pressure-lowering effect as captopril”.
For Ile-Trp (peptide), the ACE Inhibitory (%) of peak F9 at peptide content 0.01 mg/mL [1] was 95.1% and the IC50 of inhibition of ACE activity (hydrolysis of HHL to hippuric acid, RP-HPLC, 37 °C, pH 8.3) [2] was 0.5 μM.
In the case of Ile-Tyr, the IC50 (ACE; [5]) is listed as 2.69 µM.
For Leu-Arg-Tyr, the IC50 (ACE; [5]) is listed as 5.06 µM.
Work on Leu-Trp (peptide) yielded an ACE Inhibitory (%) of peak F10 at peptide content 0.01 mg/mL [1] of 87.7% and an IC50 of inhibition of ACE activity (hydrolysis of HHL to hippuric acid, RP-HPLC, 37 °C, pH 8.3) [2] of 1.11 μM.
For Met-Lys-Tyr, the IC50 (ACE; [5]) is listed as 7.26 µM.
In the case of Phe–Ala–Leu, the IC50 (ACE; peptide from pepsin hydrolysate of C. vulgaris, read-out: IC50) is listed as 26.3 µM.
With Trp-Val (peptide) the ACE Inhibitory (%) of peak F7 at peptide content 0.01 mg/mL [1] was 54.3% and the IC50 of inhibition of ACE activity (hydrolysis of HHL to hippuric acid, RP-HPLC, 37 °C, pH 8.3) [2] was 308 μM.
In the case of “VRYL (UniProt P04654 220-223, looked up, fragment)”, the IC50 (ACE; before hydrolysis with digestive enzymes) is listed as 9 mg/L.
Val-Trp (peptide) showed an ACE Inhibitory (%) of peak F8 at peptide content 0.01 mg/mL [1] of 86.1% and an IC50 of inhibition of ACE activity (hydrolysis of HHL to hippuric acid, RP-HPLC, 37 °C, pH 8.3) [2] of 0.58 μM.
